According to article PMC11212260, “Next-generation neuropeptide Y receptor small-molecule agonists inhibit mosquito-biting behavior” (Parasites & Vectors, 2024):
“And” between values parts separate entries of the source, which are not always exact repeats. Equal values may be shown once. Read-outs that look alike come from different tables or passages of the source. Where a SMILES comes first, the peptide text is derived from it.

Columns and labels:
Ae. aegypti NPYLR7 = Ae. aegypti NPYLR7 (Aedes aegypti, UniProt U5N1H5); assay: In vitro calcium (GCaMP6s) FLIPR assay in HEK293T cells transfected with NPYLR7; assay type: cell-based; settings: for activation at 100 µM: single replicate of the dose-response curve; for RFU: assay date 1/11/20 plate 1, duplicate wells
Chain of Ae. aegypti NPYLR7 (U5N1H5 entry or part of it): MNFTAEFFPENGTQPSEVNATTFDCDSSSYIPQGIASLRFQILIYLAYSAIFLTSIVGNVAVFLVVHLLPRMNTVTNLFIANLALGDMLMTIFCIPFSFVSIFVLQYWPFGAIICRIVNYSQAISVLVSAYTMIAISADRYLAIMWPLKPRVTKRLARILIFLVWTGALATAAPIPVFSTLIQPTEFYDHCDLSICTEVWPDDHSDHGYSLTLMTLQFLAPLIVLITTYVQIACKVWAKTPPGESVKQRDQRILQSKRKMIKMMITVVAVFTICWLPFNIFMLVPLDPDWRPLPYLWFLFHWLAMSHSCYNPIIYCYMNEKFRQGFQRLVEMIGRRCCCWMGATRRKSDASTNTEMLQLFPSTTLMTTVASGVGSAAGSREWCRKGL
Method: The in vitro screening assay was adapted from, and carried out at HD Biosciences (HDB, Shanghai) as follows: HEK293T (Thermo Fisher Scientific) cells were grown in Dulbecco’s modified Eagle medium (DMEM) (high glucose, with glutamine), 10% fetal bovine serum, 1% penicillin–streptomycin (Pen/Strep), seeded in a 75 cm^2 flask, and incubated at 37 °C and 5% CO2. Cells were transiently transfected with 1 μg of each plasmid expressing GCaMP6s (Addgene […]) (Chen et al., 2013), mouse Gqα15 (Addgene #40753) (Offermanns and Simon, 1995) and Ae. aegypti NPYLR7 (Addgene #52392) (Duvall et al. 2019) using Lipofectamine 2000 (Invitrogen) in 4 ml of Opti-MEM (Invitrogen). This mixture was added to a plate after 20 min and incubated for 6–8 h. Cells were then trypsinized, resuspended in phenol-free media, and plated in a 384-well plate (Greiner Bio-One) at a density of 20,000 cells per 40 μl, and incubated overnight (37 °C, 5% CO2). Cells were imaged directly in phenol-free media. Plates were loaded into a Molecular Devices fluorescence imaging plate reader (FLIPR) with an excitation wavelength of 470–495 nm and an emitted wavelength of 515–575 nm. Plates were imaged every second for 5 min. After 30 s of baseline fluorescence recording, 10 μl of the test compound in reading buffer [Hank’s Balanced Salt Solution (Gibco) + 20 mM HEPES (Sigma-Aldrich)] was added. Concentrations tested ranged from 0 to 100 μM. Data were collected in raw fluorescence units (RFU).
Each test plate included replicates of 10 μM FMRFa3 (H‐Ala‐Gly‐Gln‐Gly‐Phe‐Met‐Arg‐Phe‐NH2), an Ae. aegypti neuropeptide agonist of NPYLR7 used to calculate the hundred percent effect (HPE). The zero percent effect (ZPE) control was calculated as a response to buffer alone. The Z′ factor was calculated for each plate by Z^′=1-3σHPE+3σZPE/|μHPE-μZPE| . Plates with Z′ < 0.5 were excluded from analysis. Raw fluorescence units (RFU) were converted to percent effect relative to the average of the ZPE and HPE. Percent effect = (sample luminescence − average ZPE)/(average HPE − average ZPE)×100. […] Each replicate was plotted as percent effect versus log[concentration], and replicates with maximal responses between 20 and 250% were used for EC50 calculations. Relative EC50 was calculated using an [Agonist] versus response–variable slope four-parameter model where Y=Bottom+(X^Hillslope)∗(Top-Bottom)/(X^HillSlope+EC50^HillSlope) . For compounds with multiple replicates, the relative EC50 of each replicate was averaged.

[1] = tested on: Aedes aegypti (Orlando strain) females; assay: Host-seeking screening assay (miniport olfactometer); assay type: in vivo; settings: fed 1 μM in saline, tested 48 h post-meal; for Attraction (relative to saline): per-compound value of Fig. 3C
Method: Groups of 60–150 females were placed in bucket cages with a diameter of 21.6 cm and height of 16.5 cm (VWR) and fasted with access to water for 24 h prior to feeding. Meals were delivered to females via Glytube membrane feeders as described previously. Meals consisted of 1.5 ml sheep blood (HemoStat Laboratories), saline (400 mM NaHCO3 + dih2O), or saline and test compound. Lyophilized compounds were stored at room temperature until use. High-concentration stocks (30 mM in 100% dimethyl sulfoxide [DMSO]) (Sigma-Aldrich) were stored at −20 °C and diluted in saline immediately prior to feeding. Once prepared, meals and glycerol heating elements were warmed in a 42 °C water bath for 15 min to provide warmth to attract mosquitos to feed. ATP (1 mM final concentration) and test compounds (1 μM final concentration) were added prior to placing the meal on top of the mesh on the cage containing female mosquitos. Females were allowed 15–20 min to feed to repletion. Abdominal engorgement was scored by eye and confirmed by weighing females to ensure full feeding (Data S1). […] Females were returned to their original cage with a diH2O wick for 48 h prior to behavioral testing. The lethality of each compound was measured by counting the number of dead females in each cage 24 h post-meal.
Miniport olfactometers were fabricated in-house as described previously. Information regarding design, construction, and use can be found at https://github.com/VosshallLab/Miniport-Construction. Miniport canisters consisted of a 6″ × 3″ × 3″ acrylic tube with a mesh screen to allow for air flow. Groups of 10–20 females were loaded into canisters 24 h post-meal. Females were left in canisters overnight to acclimate with two cotton balls soaked in diH20 to prevent desiccation. Behavior trials began 48 h post-meal. Canisters were randomly assigned to attraction traps 1–4 and given 5 min to acclimate. The stimulus end of the trap was connected to a flowmeter that supplied 5% CO2 at a rate of 30 ml/min. Thirty seconds of CO2 flow was supplied to activate females prior to opening the sliding door. Once opened, the sliding door gave females access to the attraction trap baited with a human-scented nylon stocking previously worn by the same experimenter for 8–10 h to collect body odor and stored in a plastic bag at −20 °C until use. After 5 min, the sliding door was closed and attraction was scored as mosquitoes in the attraction trap/total number of mosquitoes. For each experiment data were normalized to the matched average saline attraction from the same experiment (% attracted/average saline attraction). Any dead mosquitoes were excluded from the analysis. Non-fed females and blood-fed females served as environmental control groups while the saline-fed females served as the vehicle control each day. If non-fed or saline-fed females were less than 50% attracted or if blood-fed females were more than 20% attracted behavioral trials were halted and all data from that experimental day were discarded.

[2] = EC50 of the individual assay date/plate (assay date), read-out: EC50
[3] = HEK-293T, 33.3333 uM, single replicate, normalised response
[4] = HEK-293T, 100 uM, normalised response
[5] = relative EC50, percent effect relative to 10 μM FMRFa3, read-out: EC50
[6] = sheet Figure 3C, unit inferred, read-out: EC50
[7] = summary EC50 per compound (mean over assay dates), the unit is taken from the neighbouring EC50 (uM) column, read-out: Reported Metric
[8] = Figure 1E Summary, third list (n = 39), read-out: Reported Metric (Summary list)
[9] = Figure 1E, EC50 of the single assay date/plate, read-out: EC50
[10] = Figure 1E, metric reported per compound, repeated on every replicate line, read-out: Reported Metric (EC50)
[11] = HEK-293T, single replicate, normalised response
[12] = HEK-293T, 11.1111 uM, single replicate, normalised response

Compound | EC50 (Ae. aegypti NPYLR7; [2]) [µM] | activation at 33.3333 µM (Ae. aegypti NPYLR7; [3]) [%] | activation at 100 µM (Ae. aegypti NPYLR7; [4]) [%] | EC50 (Ae. aegypti NPYLR7; [5]) [µM] | EC50 (Ae. aegypti NPYLR7; [6]) [µM] | EC50 (Ae. aegypti NPYLR7; [7]) [µM] | Attraction (relative to saline) [1] | EC50 (Ae. aegypti NPYLR7; [8]) [µM] | activation at 1.2346 µM (Ae. aegypti NPYLR7; [11]) [%] | activation at 11.1111 µM (Ae. aegypti NPYLR7; [12]) [%] | other results
Cc1nc(NC(=N)N)nc2cc(OCC(F)(F)F)ccc12 [TDI-014168] | 4.26 | 80.4 | 74.2 | 4.26 | 4.26 | 4.26 | 1.03 |  |  |  | EC50 (Ae. aegypti NPYLR7; Figure 1E Summary, second list (n = 48), read-out: Reported Metric (Summary list)): 4.26 µM; Host-seeking relative to saline (test compound % host-seeking/average matched saline % host-seeking) ([1]; individual replicates, listed as TDI-04168): 1.07
Cc1nc(NC(=N)N)nc2cc(OC(F)F)ccc12 [TDI-012615] |  |  |  | 1.62 |  |  | 0.94 | 1.62 |  |  | RFU (Ae. aegypti NPYLR7; 0.00169350878084303uM, listed as TDI-012615-NX-1): 74 RFU and 66 RFU; RFU (Ae. aegypti NPYLR7; 0.00508052634252909uM, listed as TDI-012615-NX-1): 74 RFU and 63 RFU; RFU (Ae. aegypti NPYLR7; 0.0152415790275873uM, listed as TDI-012615-NX-1): 71 RFU and 60 RFU; RFU (Ae. aegypti NPYLR7; 0.0457247370827618uM, listed as TDI-012615-NX-1): 57 RFU and 73 RFU; RFU (Ae. aegypti NPYLR7; 0.137174211248285uM, listed as TDI-012615-NX-1): 57 RFU and 91 RFU; RFU (Ae. aegypti NPYLR7; 0.411522633744856uM, listed as TDI-012615-NX-1): 153 RFU and 157 RFU; RFU (Ae. aegypti NPYLR7; 1.23456790123457uM, listed as TDI-012615-NX-1): 207 RFU and 271 RFU; RFU (Ae. aegypti NPYLR7; 3.7037037037037uM, listed as TDI-012615-NX-1): 247 RFU and 267 RFU; RFU (Ae. aegypti NPYLR7; 11.1111111111111 uM, listed as TDI-012615-NX-1): 339 RFU and 333 RFU; RFU (Ae. aegypti NPYLR7; 33.333333 uM, listed as TDI-012615-NX-1): 353 RFU and 317 RFU; RFU (Ae. aegypti NPYLR7; 100 uM, listed as TDI-012615-NX-1): 434 RFU and 405 RFU; EC50 (Ae. aegypti NPYLR7; [9]): 1.31 µM and 1.93 µM; EC50 (Ae. aegypti NPYLR7; [10]): 1.62 µM
Cc1nc(NC(=N)N)nc2cc(OCC3CC3)ccc12 [TDI-014171] | 0.912 |  | 66.3 | 0.912 | 0.912 | 0.912 | 0.79 | 0.912 | 32.9 | 63.8 | activation at 3.7037 µM (Ae. aegypti NPYLR7; [11]): 50.2%
COc1ccc(COc2ccc3c(C)nc(NC(=N)N)nc3c2)cn1 [TDI-014173] | 1.32 | 101 |  | 1.32 | 1.32 | 1.32 | 0.88 | 1.32 | 53.6 | 74.1 | activation at 0.4115 µM (Ae. aegypti NPYLR7; HEK-293T, 0.4115 uM, single replicate, normalised response): 47.7%; activation at 3.7037 µM (Ae. aegypti NPYLR7; [11]): 83.8%
CNc1nc(NC(=N)N)nc2cc(OCc3ccc(OC)cc3)ccc12 [TDI-014190] | 0.0181 | 92.1 | 91.9 | 0.0181 | 0.0181 | 0.0181 | 0.805 | 0.0181 | 77.5 | 69.9 | activation at 0.1372 µM (Ae. aegypti NPYLR7; HEK-293T, 0.1372 uM, single replicate, normalised response): 46.8%
CSCC[C@H](NC(=O)[C@H](Cc1ccccc1)NC(=O)CNC(=O)[C@H](CCC(N)=O)NC(=O)CNC(=O)[C@H](C)N)C(=O)N[C@@H](CCCNC(=N)N)C(=O)N[C@@H](Cc1ccccc1)C(N)=O [FMRF3a] (H-AGQGFMRF-NH2) |  |  |  |  |  |  |  |  |  |  | response at 0.0017(uM) (Ae. aegypti NPYLR7; 0.0017 uM, single replicate, normalised response): 2.545; response at 0.0051(uM) (Ae. aegypti NPYLR7; 0.0051 uM, single replicate, normalised response): -0.01361; EC50 (Ae. aegypti NPYLR7; EC50 (uM), EC50 of the individual assay date/plate (assay date)): 2.4 µM and 3.76 µM and 1.51 µM and 8.78 µM and 4.23 µM and 2.6 µM and 8.21 µM and 1.15 µM and 4.22 µM and 4.26 µM; EC50 (Ae. aegypti NPYLR7; Reported Metric, summary EC50 per compound (mean over assay dates), the unit is taken from the neighbouring EC50 (uM) column): 4.11 µM
Cc1nc(NC(=N)N)nc2cc(OC(F)(F)F)ccc12 [TDI-012613] |  |  |  | 3.38 |  |  |  | 3.38 |  |  | EC50 (Ae. aegypti NPYLR7; [9]): 5.42 µM and 1.34 µM; EC50 (Ae. aegypti NPYLR7; [10]): 3.38 µM; activation at 11.1111 µM (Ae. aegypti NPYLR7; HEK-293T, compound 11.1111 uM, single replicate well, read-out: response at 11.1111): 43.1%; activation at 33.3333 µM (Ae. aegypti NPYLR7; HEK-293T, compound 33.3333 uM, single replicate well, read-out: response at 33.3333): 69.7%
CSCC[C@H](NC(=O)[C@H](Cc1ccccc1)NC(=O)CNC(=O)[C@H](CCC(N)=O)NC(=O)CNC(=O)[C@H](C)N)C(=O)N[C@@H](CCCNC(=N)N)C(=O)N[C@@H](Cc1ccccc1)C(N)=O [FMRFa3, H‐Ala‐Gly‐Gln‐Gly‐Phe‐Met‐Arg‐Phe‐NH2, reference compound] (H-AGQGFMRF-NH2) |  |  |  |  |  |  |  |  |  |  | RFU (Ae. aegypti NPYLR7; 0.00169350878084303uM, listed as FMFR3a): 65 RFU and 68 RFU; RFU (Ae. aegypti NPYLR7; 0.00508052634252909uM, listed as FMFR3a): 68 RFU and 63 RFU; RFU (Ae. aegypti NPYLR7; 0.0152415790275873uM, listed as FMFR3a): 60 RFU and 54 RFU; RFU (Ae. aegypti NPYLR7; 0.0457247370827618uM, listed as FMFR3a): 68 RFU and 57 RFU; RFU (Ae. aegypti NPYLR7; 0.137174211248285uM, listed as FMFR3a): 60 RFU and 61 RFU; RFU (Ae. aegypti NPYLR7; 0.411522633744856uM, listed as FMFR3a): 69 RFU and 63 RFU; RFU (Ae. aegypti NPYLR7; 1.23456790123457uM, listed as FMFR3a): 164 RFU and 112 RFU; RFU (Ae. aegypti NPYLR7; 3.7037037037037uM, listed as FMFR3a): 199 RFU and 204 RFU; RFU (Ae. aegypti NPYLR7; 11.1111111111111 uM, listed as FMFR3a): 247 RFU and 275 RFU; RFU (Ae. aegypti NPYLR7; 33.333333 uM, listed as FMFR3a): 320 RFU and 317 RFU; RFU (Ae. aegypti NPYLR7; 100 uM, listed as FMFR3a): 354 RFU and 310 RFU
